pEC50: −log10 of the molar value. Like-named read-outs stand apart in the source and are kept apart here. Where only a bound is given, the exact number is not on record here.

Among the data in patent publication US12643882B2, “Inhibitors of human respiratory syncytial virus and metapneumovirus” (priority 2022, dated 2026) are EC50 values, retold here.

In one experiment the test system is RSV-A2-GFP virus. As to the kind of experiment: microbe, parasite or virus in culture. The experiment is classed as cell-based, Human Respiratory Syncytial Virus. Here is the method: To set up the assay, ARF vials were thawed in a 37° C. water bath and a control compound was resuspended in assay media DMEM (Dulbecco's Modified Eagle Medium) containing 2% FBS, 100 U/ml Penicillin-Streptomycin.
GFP sequence was derived from pJTI™ R4 Dest CMV N-EmGFP pA Vector (Invitrogen) and was cloned into the intergenic sequence between wild-type RSV-A2 P and M genes using standard recombineering techniques. Recombinant RSV-A2-GFP was propagated in Hep2 cells (human cells contain HeLa marker chromosomes and were derived via HeLa contamination, ATCC CCL-23) with a Multiplicity of Infection (MOI) of 0.1. Virus was harvested 3 days after infection by collecting all culture material and then freeze-thawing the mixture for 5 min. Working virus stocks were generated by thawing frozen viral cultures in 37° C. water bath, which were centrifuged at 218 g for 15 min at 4° C. 1/10 of 10×SPG (Biological Industries 06-3061-01-5A) were added and then mixed. The supernatant was aliquoted, frozen in liquid nitrogen, and then transferred to a −80° C. freezer for storage. Virus titer was determined by automated plaque assay in HEp-2 cells following methods described previously (Wen Z. et al.; 2019).
Calu-1 cells were purchased from ATCC (Cat #HTB-54) and were expanded in growth media (DMEM containing 10% FBS, 100 U/ml Penicillin-Streptomycin). To make ARF, cell culture media was removed and discarded and the cell layer was briefly rinsed with PBS to remove serum. 2.5 mL of TrypLE Express solution were added and cells incubated until dislodged, to which growth media was added and the cells were resuspended by gentle pipetting. Cells were counted for concentration and viability as determined by ViCell. Cells were centrifuged at RT, 300 g for 5 minutes to pellet cells. The supernatant was gently aspirated and the pellet was flicked to loosen cells. Cells were resuspended in an appropriate volume of freezing medium (DMEM containing 10% DMSO, 10% FBS, 100 U/ml Penicillin-Streptomycin) to achieve a concentration of 5×10^6 cells/mL. 1 mL aliquots of the cell suspension were transferred to freezing vials. The vials were put into an upright container in a −80° C. freezer overnight before transferring vials to liquid nitrogen for storage.
Assay ready freezedown (ARF, generation described separately) Calu-1 cells (ATCC HTB-54) were used. Compound plates were prepared by dispensing compounds dissolved in DMSO into the wells of a 384 well Corning® 3985 plate with an ECHO acoustic dispenser and compounds were tested in 10-point serial 3-fold dilution. […] To set up the assay, ARF vial(s) were thawed in a 37° C. water bath and were then resuspended into assay media (DMEM containing 2% FBS, 100 U/ml Penicillin-Streptomycin). Cells were counted using default parameters on ViCell and diluted to 20,000 cells/mL in assay media. RSV-A2-GFP virus was added to cells at 24,000 pfu/ml (MOI=1.2) and mixed by gentle inversion. 10 μL/well of 100% DMSO was dispensed as CellTiter-Glo (CTG) assay Max_E controls wells. The cells were dispensed at 50 μL/well using Bravo with 50 μL filtered tips into compound plates. Plates were covered with MicroClime lids, loaded with 7.5 mL of assay media to minimize evaporation, and were incubated at 37° C. and 5% CO2 for 96 hrs. Following incubation, distinct, GFP-expressing cells were counted using an Acumen imaging system with appropriate settings. A same-well CTG assay was performed by adding 10 μL/well reconstituted CellTiter-Glo reagent (Promega G7573) and plates were read on PerkinElmer Envision according to manufacturer's instructions. Raw data were loaded and analyzed in ActivityBase. Antiviral IC50 and cytotoxicity CC50 values were determined using a 4 parameter logistic fit based on the Levenberg-Marquardt algorithm. Model: 205-4 Parameter Logistic.

For another experiment, the system named is hMPV-GFP virus. Put plainly: microbe, parasite or virus in culture. The experiment is classed as cell-based, human metapneumovirus. As to the method: GFP expressing rgHMPV #3 p3 was generated in Dr. Buchholz's lab (Biacchesi S. et al., J Virol. 2007 June; 81(11): 6057-6067) and propagated in VERO cells (ATCC Cat #CCL-81) with a Multiplicity of Infection (MOI) of 0.1. Virus was harvested 4 days after infection by collecting cultured material and was freeze-thaw cycled in liquid nitrogen twice. Working virus stocks were generated from thawing frozen samples in 37° C. water bath, which were centrifuged at 218 g for 15 min at 4° C. 1/10 of 10×SPG (Biological Industries 06-3061-01-5A) were added and then mixed. The supernatant was aliquoted, frozen in liquid nitrogen, and then transferred to a −80° C. freezer for storage. Virus titer was determined by performing titration test in 96-well plates and calculate approximate virus titer using GFP event/well data.
Compound plates were prepared by dispensing compounds dissolved in DMSO into wells of a 384 well Corning 3985 polystyrene flat clear bottom optical imaging microplate (202.5 nL/well) using an ECHO acoustic dispenser. Each compound was tested in 10-point serial 3-fold dilution (typical final concentrations: 40,300 nM-2 nM). […] Continuous culture of VERO cells was maintained in complete culture media (OptiMEM supplemented with 2 mM GlutaMAX™ and 100 U/ml Penicillin-Streptomycin). To set up the assay, VERO cells were trypsinized with 0.25% Trypsin-EDTA until cells were dislodged, then cells were re-suspended with 1 mL FBS. Cells were spun down at 300 g for 5 minutes and cells were washed twice with culture media and counted using default parameters on ViCell. Cells were then diluted to 100,000 cells/mL (5,000 cells/50 μL) in complete culture media+TrypLE Select (80 μL/mL). hMPV-GFP virus was added to cells at 125,000 pfu/mL (MOI=1.25) and were mixed by gentle inversion. 10 μL/well of 100% DMSO was dispensed to CellTiter-Glo (CTG) assay Max_E controls wells. Cells were dispensed at 50 μL/well using Bravo and 50 μL filtered tips into compound plates. Plates were covered with MicroClime lids and loaded with 7.5 mL of assay media to minimize evaporation. Plates were lightly shaken for 10 minutes at room temperature and then incubated at 37° C. and 5% CO2 for 48 hrs. Following incubation, distinct GFP-expressing cells were counted using an Acumen imaging system with appropriate settings. A same-well CTG assay was performed by adding 10 μL/well reconstituted CellTiter-Glo reagent (Promega G7573) and plates were read on PerkinElmer Envision according to manufacturer's instructions. Raw data were loaded and analyzed in ActivityBase. Antiviral IC50 and cytotoxicity CC50 values were determined using a 4 parameter logistic fit based on the Levenberg-Marquardt algorithm. Model: 205-4 Parameter Logistic. • References: Wen Z, Citron M, Bett A J, Espeseth A S, Vora K A, Zhang L, DiStefano D J. Development and application of a higher throughput RSV plaque assay by immunofluorescent imaging. J Virol Methods. 2019 January; 263:88-95. doi: 10.1016/j.jviromet.2018.10.022. Epub 2018 Oct. 28. PMD: 30381239. • Biacchesi S, Murphy B R, Collins P L, Buchholz U J. Frequent frameshift and point mutations in the SH gene of human metapneumovirus passaged in vitro. J Virol. 2007 June; 81(11):6057-67. doi: 10.1128/JVL.00128-07. Epub 2007 Mar. 21. PMID: 17376897; PMCID: MC 1900297. Assay Data

[1] abbreviates: human respiratory syncytial virus, Calu-1, 96 h, read-out: RSV EC50, Calu-1 cells infected with RSV-A2-GFP, 96 hrs, GFP-expressing cells counted.
Where [2] appears, read: Calu-1 cells infected with RSV-A2-GFP, 96 hrs, GFP-expressing cells counted, read-out: RSV EC50.
[3] abbreviates: VERO cells infected with hMPV-GFP, 48 hrs, GFP-expressing cells counted, read-out: hMPV EC50.
The mark [4] stands for this setting: read-out: hMPV EC50, VERO cells infected with hMPV-GFP, 48 hrs, GFP-expressing cells counted.

For `Cc1nn(-c2ncccn2)cc1C(=O)N1C[C@@H]2[C@H](C1)[C@H]2Oc1cc(C(C)(C)N)c(Cl)c(-c2ccc(F)cc2)n1` [Example 120, ((1R,5S,6s)-6-((4-(2-aminopropan-2-yl)-5-chloro-6-(4-fluorophenyl)pyridin-2-yl)oxy)-3-azabicyclo[3.1.0]hexan-3-yl)(3-methyl-1-(pyrimidin-2-yl)-1H-pyrazol-4-yl)methanone], the pEC50 in the experiment with RSV-A2-GFP virus (setting [1]) is greater than 8.00; in the experiment on hMPV-GFP virus (human metapneumovirus, Vero, 48 h, read-out: hMPV EC50, VERO cells infected with hMPV-GFP, 48 hrs, GFP-expressing cells counted) it was less than 7.00.
With `Cc1nc(-c2ncccn2)sc1C(=O)N1C[C@@H]2[C@H](C1)[C@H]2Oc1cc(C(C)(C)N)cc(-c2ccc(C#N)c(F)c2)n1` [Example 36, 4-(4-(2-aminopropan-2-yl)-6-(((1R,5S,6s)-3-(4-methyl-2-(pyrimidin-2-yl)thiazole-5-carbonyl)-3-azabicyclo[3.1.0]hexan-6-yl)oxy)pyridin-2-yl)-2-fluorobenzonitrile], the figures for the negative-log EC50 (pEC50) with RSV-A2-GFP virus (setting [2]) and in the experiment on hMPV-GFP virus (setting [3]) were greater than 8.00 and 7.00 to 8.00, respectively.
In the same order, the values of `Cc1nn(-c2ncccn2)cc1C(=O)N1C[C@@H]2[C@H](C1)[C@H]2Oc1cc(C(C)(C)N)cc(-c2cc(F)c(F)cc2F)n1` [Example 81, ((1R,5S,6s)-6-((4-(2-aminopropan-2-yl)-6-(2,4,5-trifluorophenyl)pyridin-2-yl)oxy)-3-azabicyclo[3.1.0]hexan-3-yl)(3-methyl-1-(pyrimidin-2-yl)-1H-pyrazol-4-yl)methanone] are greater than 8.00 and 7.00 to 8.00.
In the case of `Cn1nc(-c2ncccn2)cc1C(=O)N1C[C@H]2[C@H](Oc3cc(C(C)(C)N)cc(-c4ccc(C(F)(F)F)cc4)n3)[C@@]2(C)C1` (single isomer, unassigned; enantiomer 2) [Example 110B], the pEC50 with RSV-A2-GFP virus (read-out: RSV EC50, Calu-1 cells infected with RSV-A2-GFP, 96 hrs, GFP-expressing cells counted) is greater than 8.00; in the experiment with hMPV-GFP virus (setting [4]) it was less than 7.00.
Take `CC(C)(N)c1cc(O[C@H]2[C@@H]3CN(C(=O)c4cn(-c5ncccn5)nc4C4CC4)C[C@@H]32)nc(-c2ccc(F)cc2)c1` [Example 65, ((1R,5S,6s)-6-((4-(2-aminopropan-2-yl)-6-(4-fluorophenyl)pyridin-2-yl)oxy)-3-azabicyclo[3.1.0]hexan-3-yl)(3-cyclopropyl-1-(pyrimidin-2-yl)-1H-pyrazol-4-yl)methanone]: the pEC50 with RSV-A2-GFP virus (setting [2]) is greater than 8.00; in the experiment with hMPV-GFP virus (setting [3]) it was less than 7.00.
For `Cc1nc(-c2ncccn2)sc1C(=O)N1C[C@@H]2[C@H](C1)[C@H]2Oc1cc(C(C)(C)N)cc(-c2ccc(F)c(F)c2F)n1` [Example 14, ((1R,5S,6s)-6-((4-(2-aminopropan-2-yl)-6-(2,3,4-trifluorophenyl)pyridin-2-yl)oxy)-3-azabicyclo[3.1.0]hexan-3-yl)(4-methyl-2-(pyrimidin-2-yl)thiazol-5-yl)methanone], in that order: greater than 8.00 and 7.00 to 8.00.
For `Cc1nc(-c2ncccn2)sc1C(=O)N1C[C@@H]2[C@H](C1)[C@H]2Oc1cc(C(C)(C)N)cc(C2=CCC3(CCC3)CC2)n1` [Example 48, ((1R,5S,6s)-6-((4-(2-aminopropan-2-yl)-6-(spiro[3.5]non-6-en-7-yl)pyridin-2-yl)oxy)-3-azabicyclo[3.1.0]hexan-3-yl)(4-methyl-2-(pyrimidin-2-yl)thiazol-5-yl)methanone], in that order: greater than 8.00 and less than 7.00.
In the same order, the values of `Cc1cc(-c2cc(C(C)(C)N)cc(O[C@H]3[C@@H]4CN(C(=O)c5sc(-c6ncccn6)nc5C)C[C@@H]43)n2)ccc1F` [Example 35, ((1R,5S,6s)-6-((4-(2-aminopropan-2-yl)-6-(4-fluoro-3-methylphenyl)pyridin-2-yl)oxy)-3-azabicyclo[3.1.0]hexan-3-yl)(4-methyl-2-(pyrimidin-2-yl)thiazol-5-yl)methanone] are greater than 8.00 and less than 7.00.
As for `Cn1nc(-c2ncccn2)cc1C(=O)N1C[C@H]2[C@H](Oc3cc(C(C)(C)N)cc(-c4ccc(C(F)(F)F)cc4)n3)[C@@]2(C)C1` (single isomer, unassigned; enantiomer 1) [Example 110A], the pEC50 in the experiment on RSV-A2-GFP virus (setting [1]) was greater than 8.00; in the experiment with hMPV-GFP virus (setting [4]), 7.00 to 8.00.
In the case of `Cc1nc(-c2ncccn2)sc1C(=O)N1C[C@@H]2[C@H](C1)[C@H]2Oc1cc(C(C)(C)N)cc(N2CCC(C(F)(F)F)CC2)n1` [Example 125, ((1R,5S,6s)-6-((4-(2-aminopropan-2-yl)-6-(4-(trifluoromethyl)piperidin-1-yl)pyridin-2-yl)oxy)-3-azabicyclo[3.1.0]hexan-3-yl)(4-methyl-2-(pyrimidin-2-yl)thiazol-5-yl)methanone], the pEC50 was greater than 8.00 with RSV-A2-GFP virus (setting [2]) and less than 7.00 in the experiment on hMPV-GFP virus (setting [3]).
